# Patent publication US6169181A, “Compounds useful to treat retroviral infections” (Pharmacia & Upjohn Company, priority 1998, dated 2001)
# Several values for one entry are separate records, joined by “and”; a condition that tells them apart may be missing. Identical values can stand only once.
# What was measured:
# [1] = target: HIV-1 protease (Human immunodeficiency virus type 1 group M subtype B, UniProt P04585); experiment: biochemical; conditions: Table II, enzyme HIV-1
# In short: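 Percent inhibition came from fluorescence of FITC-tagged cleavage product, separated by filtration from uncleaved substrate captured on streptavidin-coated beads. The enzyme (10 μl of 0.1 μM) and compound acted on a biotin/FITC dual-labelled peptide for one hour at room temperature in the dark. The reaction ran in 0.1 M sodium acetate, pH 5.5, with 1.0 M NaCl and 0.05% NP-40.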
# [2] = target: T1, single chain tethered (tandem) HIV protease (HIV-1 M:B_HXB2R, UniProt P04585); experiment: Tandem HIV protease assay; assay type: biochemical; conditions: Table II, enzyme HIV1TANDEM; for Ki: read-out: FITC KI
# T1 construct: purified enzyme, FITC/biotin substrate assay
# Method: In the enzyme inhibition assay described above, the sensitivity of Ki value determination is in part limited by the ability to continue to lower the enzyme concentration for compounds with high binding affinity. To prevent de-dimerization at low enzyme concentration, a tandemly linked enzyme is prepared in which the two monomers are covalently linked by an appropriate stretch of amino acid residues. Using the latter enzyme, the sensitivity of the inhibition assay is improved since much lower enzyme concentration can be utilized, as compared to the condition using the wild-type enzyme.
# The starting inhibitor concentrations are determined based on preliminary enzyme inhibition screening results which estimate the expected potency of the inhibitor. Inhibitor concentrations are then prepared using the Biomek 1000 (Beckman) and the Quadra 96 (Tomtec). Substrate (biotinylated at the amino terminal arginine and fluorescently labeled with fluorescein at the carboxyl terminal lysine), inhibitor and the tandem enzyme are allowed to react in solution at pH 5.5 (buffers identical to those used with the native dimeric enzyme) in the dark for 96 hours. Streptavidin coated polystyrene beads are added to stop the reaction. The labeled cleavage product is separated from unreacted substrate via filtration. Residual fluorescence is quantitated with the Idexx SM2000 (Idexx) and the resulting data are analyzed using the NLLSF program.
compound,measurement,setting,value
"CCC[C@@]1(CCc2ccc(F)cc2)CC(O)=C([C@H](c2cccc(NS(=O)(=O)c3ccc(C#N)cn3)c2)C(C)(C)C)C(=O)O1 (single isomer, unassigned) [Example 347, N-[3-{1(S or R)-(4-Hydroxy-5,6-dihydro-2-oxo-6(R or S)-(2-(4-fluorophenyl)ethyl)-6-propyl-2H-pyran-3-yl)-2,2-dimethyl-propyl}phenyl]-5-cyanopyridine-2-sulfonamide]",PROTEASE % INHIB.,[1]; DOSE 0.123 (unit not given),20.99%
same,PROTEASE % INHIB.,[1]; DOSE 0.370 (unit not given),50.82%
same,PROTEASE % INHIB.,[1]; DOSE 1.100 (unit not given),71.4%
same,PROTEASE % INHIB.,[1]; DOSE 3.300 (unit not given),83%
same,PROTEASE % INHIB.,[1]; DOSE 10.000 (unit not given),90.97%
same,PROTEASE % INHIB.,[1]; DOSE 30.000 (unit not given),87.18%
same,Ki,[2],13.6 nM
"CCCC1(CCC)CC(O)=C(C(CC)c2cccc(NS(=O)(=O)c3ccc(C(F)(F)F)cn3)c2)C(=O)O1 (centres unmarked) [Example 280, 5-Trifluoromethyl-N-[3-[1-[4-hydroxy-2-oxo-6,6-di-n-propyl-5,6-dihydro-2H-pyran-3-yl]-propyl]-phenyl]-2-pyridinesulfonamide]",PROTEASE % INHIB.,[1]; DOSE 0.123 (unit not given),95.28%
same,PROTEASE % INHIB.,[1]; DOSE 0.370 (unit not given),94.98%
same,PROTEASE % INHIB.,[1]; DOSE 1.100 (unit not given),93.01%
same,PROTEASE % INHIB.,[1]; DOSE 3.300 (unit not given),86.69%
same,PROTEASE % INHIB.,[1]; DOSE 10.000 (unit not given),78.64%
same,PROTEASE % INHIB.,[1]; DOSE 30.000 (unit not given),76.85%
same,Ki,[2],0.1 nM
"CC(C)(C)C(C1=C(O)CC(CCc2ccccc2)(CCC(F)(F)F)OC1=O)c1cccc(NS(=O)(=O)c2ccc(N)cn2)c1 (single isomer, unassigned) [Example 268, 5-amino-N-[3-(R or S)-[1-[5,6-dihydro-4-hydroxy-2-oxo-6-(2-phenethyl)-6-(R or S)-(3,3,3-trifluoropropyl)-2H-pyran-3-yl]-2,2-dimethylpropyl]phenyl]-2-pyridinesulfonamide]",Ki,[2],0.835 nM
"CCC[C@@]1(CCc2ccccc2)CC(O)=C([C@@H](c2cccc(NS(=O)(=O)c3ccc(C#N)cn3)c2)C(C)(C)C)C(=O)O1 (single isomer, unassigned) [Example 302, 5-Cyano-N-[3(R or S)-(1-[5,6-dihydro-4-hydroxy-2-oxo-6(R or S)-(2-phenylethyl)-6-propyl-2H-pyran-3-yl]-2,2-dimethylpropyl)-phenyl]-2-pyridinesulfonamide]",Ki,[2],1.87 nM and 3.6 nM
"CCCC1(CCC)CC(O)=C(C(c2cccc(NS(=O)(=O)c3ccc(N)cn3)c2)C(C)(C)C)C(=O)O1 (single isomer, unassigned) [Example 320, 5-Amino-N-[3(R or S)-(1-[5,6-dihydro-6,6-dipropyl-4-hydroxy-2-oxo-2H-pyran-3-yl]-2,2-dimethyl-propyl)phenyl]-2-pyridine sulfonamide]",Ki,[2],0.071 nM and 0.05 nM and 0.075 nM
"CCCC1(CCc2ccccc2)CC(O)=C([C@@H](CC)c2cccc(NS(=O)(=O)c3ccc(C(F)(F)F)cn3)c2)C(=O)O1 (stereo partly drawn) [Example 374, N-[3-[1-(S)-[5,6,-Dihydro-4-hydroxy-2-oxo-6-(2-phenylethyl)-6-propyl-2H-pyran-3-yl]propyl]phenyl]-5-(triflouromethyl)-2-pyridinesulfonamide]",PROTEASE % INHIB.,[2]; DOSE 0.123 (unit not given),78.97%
same,PROTEASE % INHIB.,[2]; DOSE 0.370 (unit not given),82.14%
same,PROTEASE % INHIB.,[2]; DOSE 1.100 (unit not given),84.98%
same,PROTEASE % INHIB.,[2]; DOSE 3.300 (unit not given),87.70%
same,PROTEASE % INHIB.,[2]; DOSE 10.000 (unit not given),95.25%
same,PROTEASE % INHIB.,[2]; DOSE 30.000 (unit not given),80.11%
same,Ki,[2],0.031 nM
"CCC(C1=C(O)CC(CCc2ccccc2)(CCc2ccccc2)OC1=O)c1cccc(NS(=O)(=O)c2ccc(C(F)(F)F)cn2)c1 (single isomer, unassigned) [Example 287, 5-Trifluoromethyl-N-[3-(R or S)-[1-[4-hydroxy-2-oxo-6,6-di-phenethyl-5,6-dihydro-2H-pyran-3-yl]-propyl]-phenyl]-2-pyridinesulfonamide]",Ki,[2],0.038 nM
"CC(C)(C)C(C1=C(O)CC(CCc2ccccc2)(CCC(F)(F)F)OC1=O)c1cccc(NS(=O)(=O)c2ccc(N)cn2)c1 (single isomer, unassigned) [Example 271, 5-amino-N-[3-(R or S)-[1-[5,6-dihydro-4-hydroxy-2-oxo-6-(2-phenethyl)-6-(R or S)-(3,3,3-trifluoropropyl)-2H-pyran-3-yl]-2,2-dimethylpropyl]phenyl]-2-pyridinesulfonamide]",Ki,[2],0.051 nM
"CCCC1(CCC)CC(O)=C(C(c2cccc(NS(=O)(=O)c3ccc(C#N)cn3)c2)C(C)(C)C)C(=O)O1 (single isomer, unassigned) [Example 322, 5-Cyano-N-[3(R or S)-(1-[5,6-dihydro-6,6-dipropyl-4-hydroxy-2-oxo-2H-pyran-3-yl]-2,2-dimethyl-propyl)phenyl]-2-pyridine-sulfonamide]",Ki,[2],1.07 nM and 1.29 nM
"CCC(C1=C(O)CC(CCc2ccccc2)(CCc2ccccc2)OC1=O)c1cccc(NS(=O)(=O)c2cc(C(F)(F)F)ccn2)c1 (single isomer, unassigned) [Example 290, 4-Trifluoromethyl-N-[3-(R or S)-[1-[4-hydroxy-2-oxo-6,6-di-phenethyl-5,6-dihydro-2H-pyran-3-yl]-propyl]-phenyl]-2-pyridinesulfonamide]",Ki,[2],1.88 nM
"CC(C)(C)C(C1=C(O)CC(CCc2ccccc2)(CCc2ccccc2)OC1=O)c1cccc(NS(=O)(=O)c2ccc(C#N)cn2)c1 (single isomer, unassigned) [Example 359, N-[3-{1(R or S)-(4-Hydroxy-5,6-dihydro-2-oxo-6,6-bis(2-phenylethyl)-2H-pyran-3-yl)-2,2-dimethylpropyl}phenyl]-5-cyanopyridine-2-sulfonamide]",Ki,[2],16.4 nM
"CCC(C1=C(O)CC(CCc2ccccc2)(CCc2ccccc2)OC1=O)c1cccc(NS(=O)(=O)c2cc(C(F)(F)F)ccn2)c1 (single isomer, unassigned) [Example 289, 4-Trifluoromethyl-N-[3-(R or S)-[1-[4-hydroxy-2-oxo-6,6-di-phenethyl-5,6-dihydro-2H-pyran-3-yl]-propyl]-phenyl]-2-pyridinesulfonamide]",Ki,[2],0.133 nM
"CCCC1(CCc2ccccc2)CC(O)=C(C(c2cccc(NS(=O)(=O)c3ccc(C(F)(F)F)cn3)c2)C(C)(C)C)C(=O)O1 (single isomer, unassigned) [Example 295, 5-Trifluoromethyl-N-[3 (R or S)-[1-[5,6-dihydro-4-hydroxy-2-oxo-6(R or S)-(2-phenethyl)-6(R or S)-n-propyl-2H-pyran-3-yl]-2,2-dimethylpropyl]-phenyl]-2-pyridinesulfonamide]",Ki,[2],0.071 nM
"CCC[C@@]1(CCc2ccc(F)cc2)CC(O)=C([C@H](CC)c2cccc(NS(=O)(=O)c3ccc(C#N)cn3)c2)C(=O)O1 (single isomer, unassigned) [Example 365, N-[3-{1(R or S)-(4-Hydroxy-5,6-dihydro-2-oxo-6(R or S)-(2-(4-fluorophenyl)ethyl)-6-propyl-2H-pyran-3-yl)propyl}phenyl]-5-cyanopyridine-2-sulfonamide]",Ki,[2],0.023 nM
"CCC(C1=C(O)CC(CCc2ccccc2)(CCc2ccccc2)OC1=O)c1cccc(NS(=O)(=O)c2cn(C)cn2)c1 (single isomer, unassigned) [Example 324, N-[3(R or S)-(1-[6,6-Bis(2-phenyl-ethyl)-5,6-dihydro-4-hydroxy-2-oxo-2H-pyran-3-yl]propyl)phenyl]-1-methyl-1H-imidazole-4-sulfonamide]",Ki,[2],0.156 nM
"CC(C)(C)C(C1=C(O)CC(CCc2ccccc2)(CCC(F)(F)F)OC1=O)c1cccc(NS(=O)(=O)c2ccc(C#N)cn2)c1 (single isomer, unassigned) [Example 272, 5-cyano-N-[3-(R or S)-[1-[5,6-dihydro-4-hydroxy-2-oxo-6-(2-phenethyl)-6-(R or S)-(3,3,3-trifluoropropyl)-2H-pyran-3-yl]-2,2-dimethylpropyl]phenyl]-2-pyridinesulfonamide]",Ki,[2],3.6 nM
"CC(C)(C)C(C1=C(O)CC(CCc2ccccc2)(CCC(F)(F)F)OC1=O)c1cccc(NS(=O)(=O)c2ccc(C#N)cn2)c1 (single isomer, unassigned) [Example 266, 5-cyano-N-[3-(R or S)-[1-[5,6-dihydro-4-hydroxy-2-oxo-6-(2-phenethyl)-6-(R or S)-(3,3,3-trifluoropropyl)-2H-pyran-3-yl]-2,2-dimethylpropyl]phenyl]-2-pyridinesulfonamide]",Ki,[2],0.033 nM
